System: MV-4-11 cells
Test: Gene expression microarray analysis (Affymetrix PrimeView) and GSEA
Format: cell-based, human
Set-up: RFU PODN (11730768_x_at) / Fold change /veh PODN (11730768_x_at) / RFU LINC00158 (11744669_a_at) / Fold change /veh LINC00158 (11744669_a_at) / RFU DUSP10 (11751237_a_at) / Fold change /veh DUSP10 (11751237_a_at) / RFU ID3 (11757404_x_at) / Fold change /veh ID3 (11757404_x_at) / RFU PLEKHG5 (11737974_s_at) / Fold change /veh PLEKHG5 (11737974_s_at) / RFU LRRC4B (11730491_at) / Fold change /veh LRRC4B (11730491_at) / RFU GIMAP4 (11747438_a_at) / Fold change /veh GIMAP4 (11747438_a_at) / RFU KRT8 (11758183_x_at) / Fold change /veh KRT8 (11758183_x_at) / RFU CNN1 (11734310_a_at) / Fold change /veh CNN1 (11734310_a_at) / RFU VPS37D (11726825_at) / Fold change /veh VPS37D (11726825_at) / RFU C10orf10 (11716522_x_at) / Fold change /veh C10orf10 (11716522_x_at) / RFU KIR2DL2 /// KIR2DL4 /// KIR2DL5A /// KIR2DL5B /// KIR2DS1 /// KIR2DS2 /// KIR2DS3 /// KIR2DS4 /// KIR3DL3 /// KIR3DL3 /// KIR3DS1 (11738374_at) / Fold change /veh KIR2DL2 /// KIR2DL4 /// KIR2DL5A /// KIR2DL5B /// KIR2DS1 /// KIR2DS2 /// KIR2DS3 /// KIR2DS4 /// KIR3DL3 /// KIR3DL3 /// KIR3DS1 (11738374_at) / RFU C1QL1 (11718748_at) / Fold change /veh C1QL1 (11718748_at) / RFU TMPRSS4 (11747572_a_at) / Fold change /veh TMPRSS4 (11747572_a_at) / RFU HAMP (11756126_x_at) / Fold change /veh HAMP (11756126_x_at) / RFU RNFT2 (11725882_a_at) / Fold change /veh RNFT2 (11725882_a_at) / RFU NR4A2 (11747474_a_at) / Fold change /veh NR4A2 (11747474_a_at) / RFU ABCC12 (11746883_a_at) / Fold change /veh ABCC12 (11746883_a_at) / RFU TMEM136 (11760407_x_at) / Fold change /veh TMEM136 (11760407_x_at) / RFU CLDN22 /// WWC2 (11732394_at) / Fold change /veh CLDN22 /// WWC2 (11732394_at) / RFU HLA-DPB1 (11760878_x_at) / Fold change /veh HLA-DPB1 (11760878_x_at) / RFU SPINT1 (11716480_a_at) / Fold change /veh SPINT1 (11716480_a_at) / RFU GAP43 (11754022_s_at) / Fold change /veh GAP43 (11754022_s_at) / RFU A4GNT (11735810_at) / Fold change /veh A4GNT (11735810_at) / RFU PRB3 (11715151_x_at) / Fold change /veh PRB3 (11715151_x_at) / RFU TUBB4B (11761932_at) / Fold change /veh TUBB4B (11761932_at) / RFU CAPN14 (11732068_a_at) / Fold change /veh CAPN14 (11732068_a_at) / RFU TMCC2 (11721928_a_at) / Fold change /veh TMCC2 (11721928_a_at) / RFU IRGQ (11745062_a_at) / Fold change /veh IRGQ (11745062_a_at) / RFU FAM174B (11720279_a_at) / Fold change /veh FAM174B (11720279_a_at) / RFU TMPRSS4 (11748680_a_at) / Fold change /veh TMPRSS4 (11748680_a_at) / RFU FAM212B (11763350_a_at) / Fold change /veh FAM212B (11763350_a_at) / RFU PLEKHG5 (11743358_a_at) / Fold change /veh PLEKHG5 (11743358_a_at) / RFU ZSCAN30 (11745921_a_at) / Fold change /veh ZSCAN30 (11745921_a_at) / RFU CMKLR1 (11741424_a_at) / Fold change /veh CMKLR1 (11741424_a_at) / RFU LOC101060620 /// MAPK8IP1 (11723275_at) / Fold change /veh LOC101060620 /// MAPK8IP1 (11723275_at) / RFU SPTSSB (11747773_x_at) / Fold change /veh SPTSSB (11747773_x_at) / RFU PRSS12 (11739890_at) / Fold change /veh PRSS12 (11739890_at) / RFU BIN1 (11741810_x_at) / Fold change /veh BIN1 (11741810_x_at) / RFU WNT11 (11732464_a_at) / Fold change /veh WNT11 (11732464_a_at) / RFU C10orf10 (11716521_a_at) / Fold change /veh C10orf10 (11716521_a_at) / RFU C5orf56 (11738089_at) / Fold change /veh C5orf56 (11738089_at) / RFU CYB561 (11721691_x_at) / Fold change /veh CYB561 (11721691_x_at) / RFU ANKRD19P (11752326_a_at) / Fold change /veh ANKRD19P (11752326_a_at) / RFU OR2T12 /// OR2T33 /// OR2T8 (11738714_s_at) / Fold change /veh OR2T12 /// OR2T33 /// OR2T8 (11738714_s_at) / RFU VCAN (11748164_a_at) / Fold change /veh VCAN (11748164_a_at) / RFU JSRP1 (11732532_at) / Fold change /veh JSRP1 (11732532_at) / RFU KRTAP10-11 (11738290_x_at) / Fold change /veh KRTAP10-11 (11738290_x_at) / RFU MYO3A (11730013_a_at) / Fold change /veh MYO3A (11730013_a_at) / RFU EBF3 (11725865_a_at) / Fold change /veh EBF3 (11725865_a_at) / RFU CAMK2N1 (11719241_x_at) / Fold change /veh CAMK2N1 (11719241_x_at) / RFU C5orf56 (11738088_a_at) / Fold change /veh C5orf56 (11738088_a_at) / RFU OLFML3 (11715873_a_at) / Fold change /veh OLFML3 (11715873_a_at) / RFU LOC100653217 /// NTM (11731650_a_at) / Fold change /veh LOC100653217 /// NTM (11731650_a_at) / RFU MAPK11 (11762145_a_at) / Fold change /veh MAPK11 (11762145_a_at) / RFU FIZ1 (11724087_x_at) / Fold change /veh FIZ1 (11724087_x_at) / RFU OASL (11726364_x_at) / Fold change /veh OASL (11726364_x_at) / RFU SOX15 (11748057_x_at) / Fold change /veh SOX15 (11748057_x_at) / RFU CD79A (11719716_a_at) / Fold change /veh CD79A (11719716_a_at) / RFU HIST1H1D (11736915_at) / Fold change /veh HIST1H1D (11736915_at) / RFU CASKIN2 (11723855_a_at) / Fold change /veh CASKIN2 (11723855_a_at) / RFU LOC730098 (11760151_x_at) / Fold change /veh LOC730098 (11760151_x_at) / RFU OR4N2 (11742367_at) / Fold change /veh OR4N2 (11742367_at) / RFU PRRT2 (11749266_a_at) / Fold change /veh PRRT2 (11749266_a_at) / RFU SNX32 (11753110_a_at) / Fold change /veh SNX32 (11753110_a_at) / RFU CDHR5 (11726645_a_at) / Fold change /veh CDHR5 (11726645_a_at) / RFU RCAN1 (11760418_a_at) / Fold change /veh RCAN1 (11760418_a_at) / RFU FAM167A (11723789_a_at) / Fold change /veh FAM167A (11723789_a_at) / RFU FAM26E (11764081_at) / Fold change /veh FAM26E (11764081_at) / RFU ISYNA1 (11749810_s_at) / Fold change /veh ISYNA1 (11749810_s_at) / RFU ACY1 (11761880_at) / Fold change /veh ACY1 (11761880_at) / RFU 11764098_at / Fold change /veh 11764098_at / RFU SAMD14 (11745864_x_at) / Fold change /veh SAMD14 (11745864_x_at) / RFU NPB (11741838_a_at) / Fold change /veh NPB (11741838_a_at) / RFU TMPRSS6 (11731388_a_at) / Fold change /veh TMPRSS6 (11731388_a_at) / RFU KRTAP10-2 (11738614_at) / Fold change /veh KRTAP10-2 (11738614_at) / RFU ARHGAP8 /// PRR5-ARHGAP8 (11727945_x_at) / Fold change /veh ARHGAP8 /// PRR5-ARHGAP8 (11727945_x_at) / RFU KRTAP5-7 /// NADSYN1 (11734609_at) / Fold change /veh KRTAP5-7 /// NADSYN1 (11734609_at) / RFU RASL12 (11751679_a_at) / Fold change /veh RASL12 (11751679_a_at) / RFU CDKN2B (11736163_a_at) / Fold change /veh CDKN2B (11736163_a_at) / RFU PRF1 (11729649_at) / Fold change /veh PRF1 (11729649_at) / RFU, ZNF638 /// ZNF638-IT1 / Fold change vs veh, ZNF638 /// ZNF638-IT1 / RFU, PANK3 / Fold change vs veh, PANK3 / RFU, SH3YL1 / Fold change vs veh, SH3YL1 / RFU, ZEB2 / Fold change vs veh, ZEB2 / RFU, NRIP1 / Fold change vs veh, NRIP1 / RFU, PTTG1IP / Fold change vs veh, PTTG1IP / RFU, CAPN2 / Fold change vs veh, CAPN2 / RFU, MED14 / Fold change vs veh, MED14 / RFU, SNORA58 / Fold change vs veh, SNORA58 / RFU, C1orf63 / Fold change vs veh, C1orf63 / RFU, LRRFIP1 / Fold change vs veh, LRRFIP1 / RFU, NDUFAF7 / Fold change vs veh, NDUFAF7 / RFU, SLC12A2 / Fold change vs veh, SLC12A2 / RFU, IBTK / Fold change vs veh, IBTK / RFU, ESF1 / Fold change vs veh, ESF1 / Fold change vs veh, TMEM50B / RFU, TAOK1 / Fold change vs veh, TAOK1 / RFU, ACBD3 / Fold change vs veh, ACBD3 / RFU, TMA16 / Fold change vs veh, TMA16 / RFU, RWDD3 / Fold change vs veh, RWDD3 / RFU, BCAT1 / Fold change vs veh, BCAT1 / RFU, EDEM3 / Fold change vs veh, EDEM3 / RFU, TMEM33 / Fold change vs veh, TMEM33 / RFU, WDR75 / Fold change vs veh, WDR75 / RFU, AHCTF1 / Fold change vs veh, AHCTF1 / RFU, TFRC / Fold change vs veh, TFRC / RFU, ZDHHC17 / Fold change vs veh, ZDHHC17 / RFU, NOM1 / Fold change vs veh, NOM1 / RFU, ARL8B / Fold change vs veh, ARL8B / RFU, ZBTB11 / Fold change vs veh, ZBTB11 / RFU, TAMM41 / Fold change vs veh, TAMM41 / RFU, KIAA1704 /// LOC100996395 / Fold change vs veh, KIAA1704 /// LOC100996395 / RFU, ING1 / Fold change vs veh, ING1 / RFU, TRMT61B / Fold change vs veh, TRMT61B / RFU, FUBP3 / Fold change vs veh, FUBP3 / RFU, TP53 / Fold change vs veh, TP53 / RFU, TNKS2 / Fold change vs veh, TNKS2 / RFU, ZFP14 / Fold change vs veh, ZFP14 / RFU, ACTR2 / Fold change vs veh, ACTR2 / RFU, PPP3R1 / Fold change vs veh, PPP3R1 / RFU, PIK3R1 / Fold change vs veh, PIK3R1 / RFU, HNRNPA1 / Fold change vs veh, HNRNPA1 / RFU, RNF170 / Fold change vs veh, RNF170 / RFU, ZNF28 / Fold change vs veh, ZNF28 / RFU, RNGTT / Fold change vs veh, RNGTT / RFU, OGT / Fold change vs veh, OGT / RFU, BRD1 / Fold change vs veh, BRD1 / RFU, MARS / Fold change vs veh, MARS / RFU, ZNF655 / Fold change vs veh, ZNF655 / RFU, FAHD1 / Fold change vs veh, FAHD1 / RFU, BDP1 / Fold change vs veh, BDP1 / RFU, LRRCC1 / Fold change vs veh, LRRCC1 / RFU, ARID1A / Fold change vs veh, ARID1A / RFU, ZNF146 / Fold change vs veh, ZNF146 / RFU, ZNF330 / Fold change vs veh, ZNF330 / RFU, GPN3 / Fold change vs veh, GPN3 / RFU, C9orf123 / Fold change vs veh, C9orf123 / RFU, N4BP2L2 / Fold change vs veh, N4BP2L2 / RFU, ARFIP1 / Fold change vs veh, ARFIP1 / RFU, FAM179B / Fold change vs veh, FAM179B / RFU, BCL10 / Fold change vs veh, BCL10 / RFU, UHRF1BP1L / Fold change vs veh, UHRF1BP1L / RFU, BET1 / Fold change vs veh, BET1 / RFU, CNOT2 / Fold change vs veh, CNOT2 / RFU, ZNF268 / Fold change vs veh, ZNF268 / Fold change vs veh, ZNF507 / RFU, DGCR2 / Fold change vs veh, DGCR2 / RFU, WDSUB1 / Fold change vs veh, WDSUB1 / Fold change vs veh, HSP90B1 /// MIR3652 / RFU, ADSS / Fold change vs veh, ADSS / RFU, GK / Fold change vs veh, GK / RFU, ZNF148 / Fold change vs veh, ZNF148 / RFU, TAF9 / Fold change vs veh, TAF9 / RFU, SLC1A5 / Fold change vs veh, SLC1A5 / RFU, SLMO2 / Fold change vs veh, SLMO2 / RFU, ABCC4 / Fold change vs veh, ABCC4 / RFU, LOC101060439 /// RAP1B / Fold change vs veh, LOC101060439 /// RAP1B / RFU, RFX7 / Fold change vs veh, RFX7 / RFU, GTPBP10 / Fold change vs veh, GTPBP10 / RFU, CNEP1R1 / Fold change vs veh, CNEP1R1 / RFU, BIVM-ERCC5 /// ERCC5 / Fold change vs veh, BIVM-ERCC5 /// ERCC5 / RFU, ILF3 / Fold change vs veh, ILF3 / RFU 11762660_at / Fold change /veh 11762660_at / RFU VCAN (11757783_s_at) / Fold change /veh VCAN (11757783_s_at) / RFU DDX43 (11728927_at) / Fold change /veh DDX43 (11728927_at) / RFU KRT8 (11758188_x_at) / Fold change /veh KRT8 (11758188_x_at) / RFU NKD1 (11759106_at) / Fold change /veh NKD1 (11759106_at) / RFU SRD5A1 (11742802_a_at) / Fold change /veh SRD5A1 (11742802_a_at) / RFU TPSAB1 /// TPSB2 (11721975_s_at) / Fold change /veh TPSAB1 /// TPSB2 (11721975_s_at) / RFU GSTM3 (11746129_a_at) / Fold change /veh GSTM3 (11746129_a_at) / RFU IL23R (11737362_x_at) / Fold change /veh IL23R (11737362_x_at) / RFU TMEM51 (11727254_a_at) / Fold change /veh TMEM51 (11727254_a_at) / RFU PIWIL2 (11732686_x_at) / Fold change /veh PIWIL2 (11732686_x_at) / RFU ORM1 (11744905_x_at) / Fold change /veh ORM1 (11744905_x_at) / RFU CCDC152 (11743942_at) / Fold change /veh CCDC152 (11743942_at) / RFU ECM1 (11717891_a_at) / Fold change /veh ECM1 (11717891_a_at) / RFU IL23R (11748794_a_at) / Fold change /veh IL23R (11748794_a_at) / RFU TNFAIP8L3 (11732012_x_at) / Fold change /veh TNFAIP8L3 (11732012_x_at) / RFU MBOAT4 (11741988_at) / Fold change /veh MBOAT4 (11741988_at) / RFU 11764193_at / Fold change /veh 11764193_at / RFU TMEM53 (11763286_at) / Fold change /veh TMEM53 (11763286_at) / RFU MAGEB2 (11727129_at) / Fold change /veh MAGEB2 (11727129_at) / RFU TMEM200A (11744735_a_at) / Fold change /veh TMEM200A (11744735_a_at) / RFU CCDC152 (11751479_a_at) / Fold change /veh CCDC152 (11751479_a_at) / RFU FAM211A (11726209_a_at) / Fold change /veh FAM211A (11726209_a_at) / RFU RGS16 (11746705_a_at) / Fold change /veh RGS16 (11746705_a_at) / RFU VCAN (11755009_s_at) / Fold change /veh VCAN (11755009_s_at) / RFU RHOB (11743442_s_at) / Fold change /veh RHOB (11743442_s_at) / RFU RGS16 (11720943_a_at) / Fold change /veh RGS16 (11720943_a_at) / RFU RGS16 (11720944_at) / Fold change /veh RGS16 (11720944_at) / RFU, VPS4B / Fold change vs veh, VPS4B / RFU, CREB1 / Fold change vs veh, CREB1 / RFU, DNAJC13 / Fold change vs veh, DNAJC13 / RFU, GNAQ / Fold change vs veh, GNAQ / RFU, CDK5R1 / Fold change vs veh, CDK5R1 / RFU, ZRANB3 / Fold change vs veh, ZRANB3 / RFU, CUL4A / Fold change vs veh, CUL4A / RFU, CCNY / Fold change vs veh, CCNY / RFU, UFL1 / Fold change vs veh, UFL1 / RFU, COG3 / Fold change vs veh, COG3 / RFU, DIAPH2 / Fold change vs veh, DIAPH2 / RFU, SKA2 / Fold change vs veh, SKA2 / RFU, AFF3 / Fold change vs veh, AFF3 / RFU, LMF1 / Fold change vs veh, LMF1 / RFU, IPO11 / Fold change vs veh, IPO11 / RFU, DFFB / Fold change vs veh, DFFB / RFU, FOXP1 / Fold change vs veh, FOXP1 / RFU, CARD8 / Fold change vs veh, CARD8 / RFU, STRN3 / Fold change vs veh, STRN3 / RFU, ADK / Fold change vs veh, ADK / RFU, RASSF2 / Fold change vs veh, RASSF2 / RFU, WIPF1 / Fold change vs veh, WIPF1 / RFU, LARP1B / Fold change vs veh, LARP1B / RFU, RASA1 / Fold change vs veh, RASA1 / RFU, RB1 / Fold change vs veh, RB1 / RFU, PPFIA1 / Fold change vs veh, PPFIA1 / RFU, MAT2A / Fold change vs veh, MAT2A / RFU, CCT5 / Fold change vs veh, CCT5 / RFU, WDR92 / Fold change vs veh, WDR92 / RFU, CUX1 / Fold change vs veh, CUX1 / RFU, TTC7A / Fold change vs veh, TTC7A / RFU, TMEM135 / Fold change vs veh, TMEM135 / RFU, DEPTOR / Fold change vs veh, DEPTOR / RFU, CPM / Fold change vs veh, CPM / RFU, DNAJB6 / Fold change vs veh, DNAJB6 / RFU, CACNA2D3 / Fold change vs veh, CACNA2D3 / RFU, DTX4 / Fold change vs veh, DTX4 / RFU, TFCP2 / Fold change vs veh, TFCP2 / RFU, GMCL1 /// GMCL1P1 / Fold change vs veh, GMCL1 /// GMCL1P1 / RFU, AEBP2 / Fold change vs veh, AEBP2 / RFU, SNHG1 /// SNORD22 /// SNORD25 /// SNORD26 /// SNORD27 /// SNORD28 /// SNORD29 /// SNORD31 / Fold change vs veh, SNHG1 /// SNORD22 /// SNORD25 /// SNORD26 /// SNORD27 /// SNORD28 /// SNORD29 /// SNORD31 / Fold change (Aza/veh), C12orf56 (ProbeSet 11735607_a_at) / Fold change (ACY-1035/veh), C12orf56 (ProbeSet 11735607_a_at) / Fold change (Aza/veh), FGFR1OP (ProbeSet 11751329_s_at) / Fold change (ACY-1035/veh), FGFR1OP (ProbeSet 11751329_s_at) / Fold change (Aza/veh), VPS36 (ProbeSet 11739960_a_at) / Fold change (ACY-1035/veh), VPS36 (ProbeSet 11739960_a_at) / RFU SYPL1 (11715823_x_at) / Fold change /veh SYPL1 (11715823_x_at) / RFU IGFBP7 (11715501_s_at) / Fold change /veh IGFBP7 (11715501_s_at) / RFU REEP3 (11722064_at) / Fold change /veh REEP3 (11722064_at) / RFU IGLL1 (11728026_x_at) / Fold change /veh IGLL1 (11728026_x_at): dose or concentration left out as unconfirmed
Conditions: ProbeSet 11715478_a_at; LIST B

Nc1ccc(-c2cccs2)cc1NC(=O)c1ccc2c(c1)cc(C1CC1)n2CCN1CCOCC1 [ACY-1035]
Fold change vs veh, TFRC: 0.87

— publication PMC5218480 (PLoS ONE, 2017)
